Source: patent EP0525768A1, “Tetralones with pharmacological activity” (J. URIACH & CIA. S.A., priority 1991, dated 1993)

Assays:
[1] = test system: Spontaneously hypertense rats; experiment: Test 2: Lowering of the arterial pressure in conscious hypertense rats; format: in vivo, rat; details: caudal artery, 3 animals, value ± SEM
Experimental: Test 2: Lowering of the arterial pressure in conscious hypertense rats.
Spontaneously hypertense rats (between 200 and 250 g of body weight) of more than 8 weeks of age have been used. Diastolic and systolic arterial pressure of the rat was measured at the caudal artery using a special sphygnomanometer (Letica 5007 and 5007/4) attached to the animal's tail. To ensure rapid and reliable data, animals were placed in a heating plate at 37 °C, with the aim to produce a vasodilatation that ensured a better fixation of the rat tail to the transducer chamber. During the experiment, rats are conscious and fixed to a clamp. The tested products were administered orally. Arterial pressure was measured every 30 minutes and 10 minutes before the administration of the tested compound. The decrease of the arterial pressure was calculated for each compound at a dose of 1 mg/Kg, using 3 animals.

[2] = test system: portal vein isolated from rat; experiment: Test 1: Inhibition of the contraction induced by noradrenaline in portal vein isolated from rat; details: 0.5 h
Experimental: Test 1: Inhibition of the contraction induced by noradrenaline in portal vein isolated from rat.
Portal vein was extracted from adult male rats (between 200 and 250 g of body weight), which had been stunned by a blow in the head. Portal vein was installed into an isolated organ bath (Letica) containing a physiological saline solution (Hamilton et al., Br. J. Pharmacol., 1986, 88, 103-111) at 37 C and a gas bubbler (5% C02 and 95% 02). Contractions were induced by noradrenaline (3µM) and were reverted after thoroughly washing with physiological saline solution. Portal vein contraction was measured with an isometric force transducer and with an initial tension of 1 g. After two contractions with noradrenaline, performed in order to measure the tissue's basal response, the tested compounds were incubated for 30 minutes and a new contraction was induced.

[3] = test system: trachea isolated from guinea pig; experiment: Test 3: Direct relaxation of the trachea isolated from guinea pig; details: 50% of the maximum relaxation, maximum = relaxation induced by isoproterenol at 1x10-6 M, cumulative addition
Experimental: Test 3 -Direct relaxation of the trachea isolated from guinea pig.
This test was performed according to the experimental model described by Emmerson, J. and Mackay, D. (J. Pharm. Pharmacol., 1979, 31, 798). Tracheas were extracted from male guinea pigs of 400 g of body weight, which had been stunned by a blow in the head. Then, tracheas were cut in zigzag and placed into an isolated organ bath (Letica) containing Krebs-Henseleit solution at 37 °C and were bubbled with carbogen (95% 02 and 5% C02). The relaxation of the trachea was measured using an isometric force transducer. The basal tension was 0.5 g.

Compound	Pressure Decrease (mm Hg) ± SEM (1 mg/Kg p.o.) [1] [mm Hg]	IC50 [2] [µM]	EC50 ([3]; Cavia porcellus) [µM]	EC50 [3] [µM]
CC1(C)C(=O)c2ccc(C#N)cc2[C@@H](NC(=O)c2ccoc2)[C@@H]1O (relative stereo) [Compound 17, Trans-2,2-dimethyl-4-(3-furylcarbonylamino)-3-hydroxy-1-oxo-1,2,3,4-tetrahydronaphthalen-6-carbonitrile]	58.0 ± 17.5	–	–	–
CC1(C)C(=O)c2ccc(Br)cc2[C@@H](Oc2ccc(O)nn2)[C@@H]1O (relative stereo) [Compound 8, Trans-6-bromo-2,2-dimethyl-3-hydroxy-4-(6-hydroxy-3-pyridazinyloxy)-1,2,3,4-tetrahydronaphthalen-1-one]	46.5 ± 0.3	0.8	15.6	–
Cn1nc(O[C@@H]2c3cc(C#N)ccc3C(=O)C(C)(C)[C@H]2O)ccc1=O (single isomer, unassigned) [Compound 3, (-)-Trans-2,2-dimethyl-3-hydroxy-4-(6-hydroxy-1-methyl-3-pyridazlnyloxy)-1-oxo-1,2,3,4-tetrahydronaphthalen-6-carbonitrile]	–	–	–	0.3
C=CCn1nc(O[C@@H]2c3cc(C#N)ccc3C(=O)C(C)(C)[C@H]2O)ccc1=O (relative stereo) [Compound 5, Trans-2,2-dimethyl-3-hydroxy-4-[6-hydroxy-1-(2-propenyl)-3-pyridazinyloxy]-1-oxo-1,2,3,4-tetrahydronaphthalen-6-carbonitrile]	20.5 ± 0.5	14	3.3	–
CC(=NC#N)NC1c2cc(C#N)ccc2C(=O)C(C)(C)C1O (stereo not drawn) [Compound 22, Trans-4-(N-cyanoacetimidoylamino)-2,2-dimethyl-3-hydroxy-1-oxo-1,2,3,4-tetrahydronaphthalen-6-carbonitrile]	–	–	1.8	–
CC1(C)C(=O)c2ccc(C#N)cc2[C@@H](NC(=O)c2cccnc2)[C@@H]1O (relative stereo) [Compound 15, Trans-2,2-dimethyl-3-hydroxy-1-oxo-4-(3-pyridylcarbonylamino)-1,2,3,4-tetrahydronaphthalen-6-carbonitrile]	50.0 ± 9.8	2.8	4.9	–
CC1(C)C(=O)c2ccc(C#N)cc2[C@@H](Oc2ccc(O)nn2)[C@@H]1O (relative stereo) [Compound 1, Trans-2,2-dimethyl-3-hydroxy-4-(6-hydroxy-3-pyridazinyloxy)-1-oxo-1,2,3,4-tetrahydronaphthalen-6-carbonitrile]	116.0 ± 5.9	8.8	5.2	–
CC1(C)C(=O)c2ccc(C#N)cc2[C@@H](NC(=O)c2ccccc2)[C@@H]1O (relative stereo) [Compound 18, Trans-2,2-dimethyl-3-hydroxy-1-oxo-4-(phenylcarbonylamino)-1,2,3,4-tetrahydronaphthalen-6-carbonitrile]	31.0 ± 11.9	–	2.1	–
Cn1nc(O[C@@H]2c3cc(C#N)ccc3C(=O)C(C)(C)[C@H]2O)ccc1=O (racemic) [Compound 2, Rac-Trans-2,2-dimethyl-3-hydroxy-4-(6-hydroxy-1-methyl-3-pyridazinyloxy)-1-oxo-1,2,3,4-tetrahydronaphthalen-6-carbonitrile]	112.0 ± 1.0	2.8	0.31	–
CC1(C)C(=O)c2ccc(C#N)cc2[C@@H](NC(=O)c2ccccn2)[C@@H]1O (relative stereo) [Compound 14, Trans-2,2-dimethyl-3-hydroxy-1-oxo-4-(2-pyridylcarbonylamino)-1,2,3,4-tetrahydronaphthalen-6-carbonitrile]	71.7 ± 14.2	23	–	–
COc1ccc(C(=O)N[C@@H]2c3cc(C#N)ccc3C(=O)C(C)(C)[C@H]2O)cc1 (relative stereo) [Compound 19, Trans-2,2-dimethyl-3-hydroxy-4-(4-methoxyphenylcarbonylamino)-1-oxo-1,2,3,4-tetrahydronaphthalen-6-carbonitrile]	46.7 ± 8.6	12	0.3	–
Cn1nc(O[C@@H]2c3cc(C#N)ccc3C(=O)C(C)(C)[C@H]2O)ccc1=O (single isomer, unassigned) [Compound 4, ( + ).Trans-2,2-d i methyl-3-hyd roxy-4-(6-hydroxy-1-methyl-3-pyridazinyloxy)-1-oxo-1,2,3,4-tetrahydronaphthalen-6-carbonitrile]	–	–	–	4.6
CC1(C)C(=O)c2ccc(C#N)cc2[C@@H](Oc2ccccn2)[C@@H]1O (relative stereo) [Compound 11, Trans-2,2-dimethyl-3-hydroxy-1-oxo-4-(2-pyridyloxy)-1,2,3,4-tetrahydronaphthalen-6-carbonitrile]	43.0 ± 16.0	25	5.8	–
CC1(C)C(=O)c2ccc(C#N)cc2C(Nc2cc(Cl)ncn2)C1O (stereo not drawn) [Compound 23]	45.5 ± 11.5	3.7	4.4	–
CC1(C)C(=O)c2ccc(C#N)cc2[C@@H](OC2=CC(=O)CC2)[C@@H]1O (relative stereo) [Compound 12, Trans-2,2-dimethyl-3-hydroxy-1-oxo-4-(3-oxo-1-cyclopent-1-enyloxy)-1,2,3,4-tetrahydronaphthalen-6-carbonitrile]	50.0 ± 16.0	–	–	–
